Among the data in ChEMBL document CHEMBL1143863, “N(G)-aminoguanidines from primary amines and the preparation of nitric oxide synthase inhibitors” (J Med Chem, 2008) are Kd, Ki and Kinact values, retold here.

A word on the Kd: it is the concentration at which binding is half-saturated. Higher therefore signals a looser complex. Broadly, the Ki is a measure of affinity in units of concentration, obtained from inhibition or displacement. Read a high Ki as lower affinity.

Experiment [1] deals with T1, Nitric oxide synthase, inducible (Homo sapiens, UniProt P35228). The experiment is described as follows: Binding affinity to truncated iNOS construct (1-490) by spectral assay.
Experiment [2] addresses T1, Nitric oxide synthase, inducible. The experiment is described as follows: Inhibition of full length iNOS by high-throughput oxymyoglobin assay.
The target is the same in experiment [3].

T1 sequence (P35228 whole entry, the tested form may be a part): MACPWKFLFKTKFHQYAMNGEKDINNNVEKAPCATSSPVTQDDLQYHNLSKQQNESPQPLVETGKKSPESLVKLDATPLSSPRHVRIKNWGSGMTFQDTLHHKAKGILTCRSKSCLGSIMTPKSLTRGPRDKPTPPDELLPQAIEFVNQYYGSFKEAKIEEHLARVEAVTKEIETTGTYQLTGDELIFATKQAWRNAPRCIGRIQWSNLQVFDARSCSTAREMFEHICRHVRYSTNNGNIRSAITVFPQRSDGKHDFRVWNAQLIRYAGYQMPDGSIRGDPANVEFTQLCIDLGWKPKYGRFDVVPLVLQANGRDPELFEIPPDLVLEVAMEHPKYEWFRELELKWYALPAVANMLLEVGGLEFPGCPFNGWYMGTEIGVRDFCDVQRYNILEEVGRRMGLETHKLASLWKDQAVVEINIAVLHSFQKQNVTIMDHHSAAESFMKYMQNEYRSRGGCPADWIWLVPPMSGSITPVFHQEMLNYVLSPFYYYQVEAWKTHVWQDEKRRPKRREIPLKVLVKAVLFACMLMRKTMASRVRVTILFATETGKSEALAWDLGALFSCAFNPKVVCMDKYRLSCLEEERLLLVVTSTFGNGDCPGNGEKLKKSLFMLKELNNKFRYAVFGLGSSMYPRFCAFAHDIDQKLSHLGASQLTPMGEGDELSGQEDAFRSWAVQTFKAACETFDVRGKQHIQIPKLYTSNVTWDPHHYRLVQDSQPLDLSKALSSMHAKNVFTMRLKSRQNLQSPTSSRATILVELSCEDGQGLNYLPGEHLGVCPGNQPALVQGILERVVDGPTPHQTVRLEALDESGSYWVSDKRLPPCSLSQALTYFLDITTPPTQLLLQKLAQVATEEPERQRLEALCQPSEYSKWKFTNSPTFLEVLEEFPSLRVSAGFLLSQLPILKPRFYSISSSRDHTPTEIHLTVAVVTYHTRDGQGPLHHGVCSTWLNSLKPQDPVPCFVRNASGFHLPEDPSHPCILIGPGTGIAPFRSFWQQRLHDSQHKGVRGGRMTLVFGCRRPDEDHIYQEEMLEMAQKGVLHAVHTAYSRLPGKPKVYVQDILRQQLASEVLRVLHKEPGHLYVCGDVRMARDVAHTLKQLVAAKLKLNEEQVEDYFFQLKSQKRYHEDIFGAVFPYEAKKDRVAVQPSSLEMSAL

The molecule `N=C(N)NCCC[C@H](N)C(=O)O` [ARGININE] had a Kd in experiment [1] of 7 µM. This lies in the single-digit micromolar range.
`N/C(=N/CCC[C@H](N)C(=O)O)N(N)CC(F)(F)F`: in experiment [2], affinity was put at a Ki of 10.5 µM. This molecule returned a Kd in experiment [1] of 40.4 µM.
In turn, `N/N=C(\N)NCCC[C@H](N)C(=O)O` yielded a Ki in experiment [2] of 2.2 µM. This molecule also registered a Kinact in experiment [3] of 0.18 min⁻¹. The Kd in experiment [1] was 1.3 µM.
For the molecule `CN(N)/C(N)=N\CCC[C@H](N)C(=O)O`, the affinity in experiment [2] corresponds to a Ki of 34.1 µM. In addition, the Kinact in experiment [3] was found to be 0.39 min⁻¹. Also, in experiment [1], the Kd came out at 10 µM.
`CN/N=C(\N)NCCC[C@H](N)C(=O)O` gave a Ki in experiment [2] of 16.4 µM. Moreover, the Kd in experiment [1] turned out to be 29 µM.
